Laboratory results: patent US7504403B2, “Substituted heterocyclic compounds and methods of use” (Amgen Inc., priority 2004, dated 2009)

Test system: LPS induced TNF release
Test: Lipopolysaccharide-Activated THP1 Cell TNF Production Assay
Format: cell-based
Settings: Homo sapiens, THP-1
Description: Lipopolysaccharide-Activated THP1 Cell TNF Production Assay
THP1 cells are resuspended in fresh THP1 media (RPMI 1640, 10% heat-inactivated FBS, 1×PGS, 1×NEAA, plus 30 μM βME) at a concentration of 1E6/mL. One hundred microliters of cells per well are plated in a polystyrene 96-well tissue culture. One microgram per mL of bacterial LPS is prepared in THP1 media and is transferred to the wells. Test compounds are dissolved in 100% DMSO and are serially diluted 3 fold in a polypropylene 96-well microtiter plate (drug plate). HI control and LO control wells contain only DMSO. One microliter of test compound from the drug plate followed by 10 μL of LPS are transferred to the cell plate. The treated cells are induced to synthesize and secrete TNF-α at 37° C. for 3 h. Forty microliters of conditioned media are transferred to a 96-well polypropylene plate containing 110 μL of ECL buffer (50 mM Tris-HCl pH 8.0, 100 mM NaCl, 0.05% Tween 20, 0.05% NaN3 and 1%FBS) supplemented with 0.44 nM MAB610 monoclonal Ab (R&D Systems), 0.34 nM ruthenylated AF210NA polyclonal Ab (R&D Systems) and 44 μg/mL sheep anti-mouse M280 Dynabeads (Dynal). After a 2 h incubation at room temperature with shaking, the reaction is read on the ECL M8 Instrument (IGEN Inc.). A low voltage is applied to the ruthenylated TNF-α immune complexes, which in the presence of TPA (the active component in Origlo), results in a cyclical redox reaction generating light at […]. The amount of secreted TNF-α in the presence of compound compared with that in the presence of DMSO vehicle alone (HI control) is calculated using the formula: % control (POC)=(cpd−average LO)/(average HI−average LO)*100. Data (consisting of POC and inhibitor concentration in μM) is fitted to a 4-parameter equation (y=A+((B−A)/(1+((x/C)^D))), where A is the minimum y (POC) value, B is the maximum y (POC), C is the x (cpd concentration) at the point of inflection and D is the slope factor) using a Levenburg-Marquardt non-linear regression algorithm.

| SMILES | IC50 |
| --- | --- |
| C[C@H](Nc1nccc(N2CCCn3c2nc(-c2ccccc2F)cc3=O)n1)c1ccccc1 [Example 2, 2-(2-fluorophenyl)-9-[2-(1(S)-phenyl-ethylamino)-pyrimidin-4-yl]-6,7,8,9-tetrahydro-pyrimido[1,2-a]pyrimidin-4-one] | ≤ 20 µM |
| C[C@H](Nc1nccc(N2CCCn3c2nc(-c2cccc([N+](=O)[O-])c2)cc3=O)n1)c1ccccc1 [Example 6, 2-(3-nitrophenyl)-9-[2-(1(S)-phenyl-ethylamino)-pyrimidin-4-yl]-6,7,8,9-tetrahydro-pyrimido[1,2-a]pyrimidin-4-one] | ≤ 20 µM |
| C[C@H](Nc1nccc(N2CCCn3c2nc(-c2ccc(Cl)c(Cl)c2)cc3=O)n1)c1ccccc1 [Example 13, 2-(3,4-dichlorophenyl)-9-[2-(1(S)-phenyl-ethylamino) -pyrimidin-4-yl]-6,7,8,9-tetrahydro-pyrimido[1,2-a]pyrimidin-4-one] | ≤ 20 µM |
| O=c1c([N+](=O)[O-])c(-c2ccccc2)nc2n1CCCN2c1ccnc(NCCc2ccccc2)n1 [Example 15, 3-Nitro-9-(2-phenethylamino-pyrimidin-4-yl)-2-phenyl-6,7,8,9-tetrahydro-pyrimido[1,2-a]pyrimidin-4-one] | ≤ 20 µM |
| COc1ccc(-c2cc(=O)n3c(n2)N(c2ccnc(N[C@@H](C)c4ccccc4)n2)CCC3)cc1 [Example 5, 2-(4-methoxyphenyl)-9-[2-(1(S)-phenyl-ethylamino)-pyrimidin-4-yl]-6,7,8,9-tetrahydro-pyrimido[1,2-a]pyrimidin-4-one] | ≤ 20 µM |
| O=c1cc(-c2ccccc2)nc2n1CCCN2c1ccnc(NCc2ccccc2)n1 [Example 29, 9-(2-{2-(benzyl)amino}-pyrimidin-4-yl)-2-phenyl-6,7,8,9-tetrahydro-pyrimido[1,2-a]pyrimidin-4-one] | ≤ 20 µM |
| Nc1nccc(N2CCCn3c2nc(-c2ccccc2)cc3=O)n1 [Example 38, 9-(2-{2-amino}-pyrimidin-4-yl)-2-phenyl-6,7,8,9-tetrahydro-pyrimido[1,2-a]pyrimidin-4-one] | ≤ 20 µM |
| C[C@H](Nc1nccc(N2CCCn3c2nc(C(C)(C)C)cc3=O)n1)c1ccccc1 [Example 11, 2-(tert-butyl)-9-[2-(1(S)-phenyl-ethylamino)-pyrimidin-4-yl]-6,7,8,9-tetrahydro-pyrimido[1,2-a]pyrimidin-4-one] | ≤ 20 µM |
| CC(Cc1cccc(CN)c1)Nc1nccc(N2CCCn3c2nc(-c2ccccc2)cc3=O)n1 (stereo not shown) [Example 44, 9-{2-[2-(3-Aminomethyl-phenyl)-1-methyl-ethylamino]-pyrimidin-4-yl}-2-phenyl-6,7,8,9-tetrahydro-pyrimido[1,2-a]pyrimidin-4-one] | ≤ 20 µM |
| CCc1cccc(-c2cc(=O)n3c(n2)N(c2ccnc(N[C@@H](C)c4ccccc4)n2)CCC3)c1 [Example 12, 2-(3-ethylphenyl)-9-[2-(1(S)-phenyl-ethylamino)-pyrimidin-4-yl]-6,7,8,9-tetrahydro-pyrimido[1,2-a]pyrimidin-4-one] | ≤ 20 µM |
| Nc1c(-c2ccccc2)nc2n(c1=O)CCCN2c1ccnc(NCCc2ccccc2)n1 [Example 18, 3-Amino-9-(2-phenethylamino-pyrimidin-4-yl) -2-phenyl-6,7,8,9-tetrahydro-pyrimido[1,2-a]pyrimidin-4-one] | ≤ 20 µM |
| O=C(NCCC1CN(c2ccnc(NCCc3ccccc3)n2)c2nc(-c3ccccc3)cc(=O)n2C1)OCc1ccccc1 (stereo not shown) [Example 52, {2-[6-Oxo-1-(2-phenethylamino-pyrimidin-4-yl)-8-phenyl-1,3,4,6-tetrahydro-2H-pyrimido[1,2-a]pyrimidin-3-yl]-ethyl}-carbamic acid benzyl ester] | ≤ 20 µM |

The remaining lines, values ahead:

| IC50 | SMILES |
| --- | --- |
| ≤ 20 µM | O=c1cc(-c2ccccc2)cc2n1CCCN2c1ccnc(NCCc2c(Cl)cccc2Cl)n1 [Example 76, 1-{2-[2-(2,6-Dichloro-phenyl)-ethylamino]-pyrimidin-4-yl}-8-phenyl-1,2,3,4-tetrahydro-pyrido[1,2-a]pyrimidin-6-one] |
| ≤ 20 µM | O=c1cc(-c2ccccc2)cc2n1CCN2c1cncc(NCCc2ccccc2)n1 [Example 89, 1-(6-Phenethylamino-pyrazin-2-yl)-7-phenyl-2,3-dihydro-1H-imidazo[1,2-a]pyridin-5-one] |
| ≤ 20 µM | O=c1cc(-c2ccccc2)cc2n1CCCN2c1ccnc(NCCc2ccc(Cl)cc2Cl)n1 [Example 77, 1-{2-[2-(2,4-Dichloro-phenyl)-ethylamino]-pyrimidin-4-yl}-8-phenyl-1,2,3,4-tetrahydro-pyrido[1,2-a]pyrimidin-6-one] |
| ≤ 20 µM | CC(Cc1cccc(C(C)(C)N)c1)Nc1nccc(N2CCC(=O)N3CC=C(c4ccccc4)N=C32)n1 (stereo not shown) [Example 65, 1-(2-{2-[3-(1-Amino-1-methyl-ethyl)-phenyl]-1-methyl-ethylamino}-pyrimidin-4-yl)-8-phenyl-1,2,3,6-tetrahydro-pyrimido[1,2-a]pyrimidin-4-one] |
| ≤ 20 µM | C[C@H](Nc1nccc(N2CCCn3c2cc(-c2ccccc2)cc3=O)n1)c1cccc(N2CCNCC2)c1 [Example 82, 8-Phenyl-1-{2-(S)-[1-(3-piperazin-1-yl-phenyl) -ethylamino]-pyrimidin-4-yl}-1,2,3,4-tetrahydro-pyrido[1,2-a]pyrimidin-6-one] |
| ≤ 20 µM | O=c1cc(-c2ccccc2)cc2n1CCCN2c1ccnc(NCCc2ccccc2Cl)n1 [Example 75, 1-{2-[2-(2-Chloro-phenyl)-ethylamino]-pyrimidin-4-yl}-8-phenyl-1,2,3,4-tetrahydro-pyrido[1,2-a]pyrimidin-6-one] |
| ≤ 20 µM | O=c1cc(-c2ccccc2)cc2n1CCCN2c1cc(NCCc2ccccc2Cl)ncn1 [Example 86, 1-{6-[2-(2-Chloro-phenyl)-ethylamino]-pyrimidin-4-yl}-8-phenyl-1,2,3,4-tetrahydro-pyrido[1,2-a]pyrimidin-6-one] |
| ≤ 20 µM | CC(Nc1nccc(N2CC(O)Cn3c2nc(-c2ccccc2)cc3=O)n1)c1ccccc1 (stereo not shown) [Example 66, 7-Hydroxy-2-phenyl-9-[2-(1-phenyl-ethylamino)-pyrimidin-4-yl]-6,7,8,9-tetrahydro-pyrimido[1,2-a]pyrimidin-4-one] |
| ≤ 20 µM | C[C@H](Nc1nccc(N2CCCn3c2cc(-c2ccccc2)cc3=O)n1)c1ccccc1 [Example 78] |
| ≤ 20 µM | CC(Cc1ccc(CN)cc1)Nc1nccc(N2CCC(=O)N3CC=C(c4ccccc4)N=C32)n1 (stereo not shown) [Example 63, 1-{2-[2-(4-Aminomethyl-phenyl)-1-methyl-ethylamino]-pyrimidin-4-yl}-8-phenyl-1,2,3,6-tetrahydro-pyrimido[1,2-a]pyrimidin-4-one] |
